Tested on in the first test: not listed separately
The test is described as follows: DRUGMATRIX: Potassium Channel [KATP] radioligand binding (ligand: [3H] Glyburide). The test is classed as cell membranes, Membrane. The settings on record: hit-t15; Not Active = under 50% inhibition at 10 µM.
Chain of Substance-P receptor (P25103 whole entry): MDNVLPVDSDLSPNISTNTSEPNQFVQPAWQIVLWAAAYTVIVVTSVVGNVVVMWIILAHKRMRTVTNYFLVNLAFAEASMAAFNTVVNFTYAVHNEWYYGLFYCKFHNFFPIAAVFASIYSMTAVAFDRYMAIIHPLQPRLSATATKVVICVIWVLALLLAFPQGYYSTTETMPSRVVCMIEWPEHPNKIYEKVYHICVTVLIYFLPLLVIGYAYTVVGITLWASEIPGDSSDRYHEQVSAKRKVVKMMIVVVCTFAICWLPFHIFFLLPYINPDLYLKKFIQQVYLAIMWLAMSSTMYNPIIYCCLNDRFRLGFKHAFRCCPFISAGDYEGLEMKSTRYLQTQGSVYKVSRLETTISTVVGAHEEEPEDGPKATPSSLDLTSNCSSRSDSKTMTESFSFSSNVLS
`COc1ccc(CN(CCN(C)C)c2ccccn2)cc1` [PYRILAMINE]: the IC50 entry is “Not Active” and the Ki entry is reported as “Not Active”.
`O=C1OC2(c3ccc(O)cc3Oc3cc(O)ccc32)c2ccccc21` [FLUORESCEIN]: the IC50 entry is “Not Active” and the Ki result was “Not Active”.
For `COC(=O)[C@H](c1ccccc1Cl)N1CCc2sccc2C1` [CLOPIDOGREL], the IC50 entry was “Not Active” and the Ki entry is “Not Active”.

The target of a further test is Glycine receptor (Rattus norvegicus, UniProt P22771+P24524+P07727+P20781). Note: in other assays of this panel Not Active means under 50% inhibition at 10 µM.
Test: not given
The class given is cell membranes, Wistar, Spinal cord, Membrane.
Conditions: not given
With `COc1ccc(CN(CCN(C)C)c2ccccn2)cc1` [PYRILAMINE], the IC50 entry is listed as “Not Active”.
Turning to `O=C1OC2(c3ccc(O)cc3Oc3cc(O)ccc32)c2ccccc21` [FLUORESCEIN], the IC50 entry is listed as “Not Active”.
For `COC(=O)[C@H](c1ccccc1Cl)N1CCc2sccc2C1` [CLOPIDOGREL], the IC50 result is given as “Not Active”.

Tested on in another test: not listed separately
In words: DRUGMATRIX: GABAA, Muscimol, Central radioligand binding (ligand: [3H] Muscimol). The test is classed as cell membranes, Rattus norvegicus, Wistar, Brain, Membrane. The conditions noted are these: Not Active = under 50% inhibition at 10 µM.
As for `COc1ccc(CN(CCN(C)C)c2ccccn2)cc1` [PYRILAMINE], the IC50 entry is on record as “Not Active” and the Ki entry is recorded as “Not Active”.
Regarding `O=C1OC2(c3ccc(O)cc3Oc3cc(O)ccc32)c2ccccc21` [FLUORESCEIN], the IC50 entry is recorded as “Not Active” and the Ki result is given as “Not Active”.
With `COC(=O)[C@H](c1ccccc1Cl)N1CCc2sccc2C1` [CLOPIDOGREL], the IC50 entry was “Not Active” and the Ki result is recorded as “Not Active”.

Tested on in the next test: not listed separately
The test is described as follows: DRUGMATRIX: Interleukin IL-1 radioligand binding (ligand: [125I] interleukin 1beta). The settings on record: nih3t3; Not Active = under 50% inhibition at 10 µM. The class given is cell membranes, Membrane.
In the case of `COc1ccc(CN(CCN(C)C)c2ccccn2)cc1` [PYRILAMINE], the IC50 result is reported as “Not Active” and the Ki result is on record as “Not Active”.
`O=C1OC2(c3ccc(O)cc3Oc3cc(O)ccc32)c2ccccc21` [FLUORESCEIN]: the IC50 result is on record as “Not Active” and the Ki result is reported as “Not Active”.
For `COC(=O)[C@H](c1ccccc1Cl)N1CCc2sccc2C1` [CLOPIDOGREL], the IC50 entry is recorded as “Not Active” and the Ki result is “Not Active”.

The target of another test is Mitogen-activated protein kinase 3 (Homo sapiens, UniProt P27361). In words: DRUGMATRIX: Protein Serine/Threonine Kinase, ERK1 enzyme inhibition (substrate: Myelin Basic Protein). The settings on record: Not Active = under 50% inhibition at 10 µM. Also on record: species or system Escherichia coli.
Chain of Mitogen-activated protein kinase 3 (P27361 whole entry): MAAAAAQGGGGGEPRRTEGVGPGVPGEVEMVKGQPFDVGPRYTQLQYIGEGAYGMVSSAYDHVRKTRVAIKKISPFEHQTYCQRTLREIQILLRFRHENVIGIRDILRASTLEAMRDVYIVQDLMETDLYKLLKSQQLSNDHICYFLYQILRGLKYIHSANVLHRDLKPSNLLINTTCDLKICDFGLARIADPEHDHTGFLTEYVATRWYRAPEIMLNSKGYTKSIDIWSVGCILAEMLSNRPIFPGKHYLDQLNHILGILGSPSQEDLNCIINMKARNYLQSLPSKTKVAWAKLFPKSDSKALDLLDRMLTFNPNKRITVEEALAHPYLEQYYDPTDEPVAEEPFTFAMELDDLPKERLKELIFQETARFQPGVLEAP
`COc1ccc(CN(CCN(C)C)c2ccccn2)cc1` [PYRILAMINE]: the IC50 result is “Not Active”.
Same read-out and setting: the value for `O=C1OC2(c3ccc(O)cc3Oc3cc(O)ccc32)c2ccccc21` [FLUORESCEIN] was “Not Active”.
For the compound `COC(=O)[C@H](c1ccccc1Cl)N1CCc2sccc2C1` [CLOPIDOGREL], the IC50 entry is on record as “Not Active”.

In a further test the target is T1, Calcitonin receptor (Homo sapiens, UniProt P30988). Note: in other assays of this panel Not Active means under 50% inhibition at 10 µM.
T1 sequence (P30988 whole entry): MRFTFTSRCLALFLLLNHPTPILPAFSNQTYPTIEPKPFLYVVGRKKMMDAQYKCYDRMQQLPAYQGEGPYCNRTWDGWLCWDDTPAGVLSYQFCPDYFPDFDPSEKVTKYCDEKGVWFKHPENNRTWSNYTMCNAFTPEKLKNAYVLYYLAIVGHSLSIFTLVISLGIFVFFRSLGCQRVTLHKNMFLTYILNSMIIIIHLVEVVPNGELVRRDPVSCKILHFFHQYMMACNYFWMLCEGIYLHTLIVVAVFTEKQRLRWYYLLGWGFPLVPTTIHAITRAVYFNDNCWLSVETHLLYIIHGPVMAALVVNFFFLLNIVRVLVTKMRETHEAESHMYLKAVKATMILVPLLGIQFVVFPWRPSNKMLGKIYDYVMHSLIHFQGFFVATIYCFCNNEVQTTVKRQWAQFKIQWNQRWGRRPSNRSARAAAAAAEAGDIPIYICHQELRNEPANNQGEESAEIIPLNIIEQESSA
Test: not given
The class given is cell membranes, Membrane. The settings on record: t47d.
For `COc1ccc(CN(CCN(C)C)c2ccccn2)cc1` [PYRILAMINE], the IC50 entry is “Not Active”.
Turning to `O=C1OC2(c3ccc(O)cc3Oc3cc(O)ccc32)c2ccccc21` [FLUORESCEIN], the IC50 result is on record as “Not Active”.
As for `COC(=O)[C@H](c1ccccc1Cl)N1CCc2sccc2C1` [CLOPIDOGREL], the IC50 result was “Not Active”.

For another test, the target named is T2, Substance-K receptor (Homo sapiens, UniProt P21452). Note: in other assays of this panel Not Active means under 50% inhibition at 10 µM.
T2 sequence (P21452 whole entry): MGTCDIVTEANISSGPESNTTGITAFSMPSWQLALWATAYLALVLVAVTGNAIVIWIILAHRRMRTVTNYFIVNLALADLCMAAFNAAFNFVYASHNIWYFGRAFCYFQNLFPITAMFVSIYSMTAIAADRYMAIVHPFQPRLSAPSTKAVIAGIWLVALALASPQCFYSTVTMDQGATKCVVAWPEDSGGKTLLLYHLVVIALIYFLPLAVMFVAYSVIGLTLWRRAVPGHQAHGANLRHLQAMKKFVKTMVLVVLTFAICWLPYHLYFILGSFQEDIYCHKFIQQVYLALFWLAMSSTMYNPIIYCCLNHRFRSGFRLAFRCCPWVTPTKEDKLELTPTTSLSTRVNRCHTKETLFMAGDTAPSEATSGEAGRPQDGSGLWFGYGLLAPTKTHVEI
Test: not given
The settings on record: cho. The test is classed as cell membranes, CHO, Membrane.
As for `COc1ccc(CN(CCN(C)C)c2ccccn2)cc1` [PYRILAMINE], the IC50 entry is listed as “Not Active”.
As for `O=C1OC2(c3ccc(O)cc3Oc3cc(O)ccc32)c2ccccc21` [FLUORESCEIN], the IC50 entry was “Not Active”.
The same measure, in the same setting: the value for `COC(=O)[C@H](c1ccccc1Cl)N1CCc2sccc2C1` [CLOPIDOGREL] was “Not Active”.

Tested on in the next test: not listed separately
In words: DRUGMATRIX: Nicotinic Acetylcholine radioligand binding (ligand: [125I] Epibatidine). The test is classed as cell membranes, Membrane. The conditions noted are these: imr-32; Not Active = under 50% inhibition at 10 µM.
Turning to `COc1ccc(CN(CCN(C)C)c2ccccn2)cc1` [PYRILAMINE], the IC50 result is on record as “Not Active” and the Ki result is listed as “Not Active”.
Regarding `O=C1OC2(c3ccc(O)cc3Oc3cc(O)ccc32)c2ccccc21` [FLUORESCEIN], the IC50 entry is reported as “Not Active” and the Ki result was “Not Active”.
For `COC(=O)[C@H](c1ccccc1Cl)N1CCc2sccc2C1` [CLOPIDOGREL], the IC50 result is “Not Active” and the Ki entry is reported as “Not Active”.

The next test addresses T3, Angiotensin-converting enzyme (Oryctolagus cuniculus, UniProt P12822).
T3 sequence (P12822 whole entry): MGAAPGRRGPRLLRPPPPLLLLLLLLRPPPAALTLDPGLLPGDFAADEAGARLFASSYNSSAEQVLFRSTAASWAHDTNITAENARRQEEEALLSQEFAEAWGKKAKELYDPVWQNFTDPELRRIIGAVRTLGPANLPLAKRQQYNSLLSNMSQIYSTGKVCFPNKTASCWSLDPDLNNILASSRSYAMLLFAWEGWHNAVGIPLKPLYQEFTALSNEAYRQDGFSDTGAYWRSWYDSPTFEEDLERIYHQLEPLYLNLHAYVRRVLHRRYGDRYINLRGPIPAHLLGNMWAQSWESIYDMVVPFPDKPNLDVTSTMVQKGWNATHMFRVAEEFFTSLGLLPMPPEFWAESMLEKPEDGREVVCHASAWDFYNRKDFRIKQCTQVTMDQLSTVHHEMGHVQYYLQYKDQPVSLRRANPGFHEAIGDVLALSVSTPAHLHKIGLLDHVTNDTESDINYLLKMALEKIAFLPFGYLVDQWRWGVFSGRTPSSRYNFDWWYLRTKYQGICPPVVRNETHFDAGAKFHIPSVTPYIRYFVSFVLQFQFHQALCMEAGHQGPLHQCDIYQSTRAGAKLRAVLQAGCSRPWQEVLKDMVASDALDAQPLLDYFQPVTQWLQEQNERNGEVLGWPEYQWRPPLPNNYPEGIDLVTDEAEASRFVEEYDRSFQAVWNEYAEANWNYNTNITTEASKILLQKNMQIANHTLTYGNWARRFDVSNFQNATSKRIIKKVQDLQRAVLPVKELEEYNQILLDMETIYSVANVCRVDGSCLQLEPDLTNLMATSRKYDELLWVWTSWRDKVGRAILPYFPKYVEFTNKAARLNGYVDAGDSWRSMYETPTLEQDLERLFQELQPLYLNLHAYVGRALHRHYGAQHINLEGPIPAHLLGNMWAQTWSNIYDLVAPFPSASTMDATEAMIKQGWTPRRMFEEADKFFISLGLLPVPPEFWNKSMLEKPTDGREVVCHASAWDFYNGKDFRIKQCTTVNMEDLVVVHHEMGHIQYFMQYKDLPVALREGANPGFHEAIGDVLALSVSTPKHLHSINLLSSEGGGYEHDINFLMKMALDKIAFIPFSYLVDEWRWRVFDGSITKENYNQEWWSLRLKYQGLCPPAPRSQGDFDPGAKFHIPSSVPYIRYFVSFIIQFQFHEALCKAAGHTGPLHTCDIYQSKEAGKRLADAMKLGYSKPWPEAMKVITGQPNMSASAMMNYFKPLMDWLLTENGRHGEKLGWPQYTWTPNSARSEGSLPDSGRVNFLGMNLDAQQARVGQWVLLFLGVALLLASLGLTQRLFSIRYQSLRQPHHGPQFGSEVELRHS
The test is described as follows: biochemical. The class given is tissue-based, Lung.
Conditions: not given
Consider `COc1ccc(CN(CCN(C)C)c2ccccn2)cc1` [PYRILAMINE], for which the IC50 entry is given as “Not Active”.
On the same count and under the same terms, the value for `O=C1OC2(c3ccc(O)cc3Oc3cc(O)ccc32)c2ccccc21` [FLUORESCEIN] was “Not Active”.
Consider `COC(=O)[C@H](c1ccccc1Cl)N1CCc2sccc2C1` [CLOPIDOGREL], for which the IC50 result is “Not Active”.

The target of another test is Adenosine receptor A2a (Homo sapiens, UniProt P29274). In words: DRUGMATRIX: Adenosine A2A radioligand binding (ligand: […]). The class given is cell membranes, HEK293, Membrane. The settings on record: hek293; Not Active = under 50% inhibition at 10 µM.
Chain of Adenosine receptor A2a (P29274 whole entry): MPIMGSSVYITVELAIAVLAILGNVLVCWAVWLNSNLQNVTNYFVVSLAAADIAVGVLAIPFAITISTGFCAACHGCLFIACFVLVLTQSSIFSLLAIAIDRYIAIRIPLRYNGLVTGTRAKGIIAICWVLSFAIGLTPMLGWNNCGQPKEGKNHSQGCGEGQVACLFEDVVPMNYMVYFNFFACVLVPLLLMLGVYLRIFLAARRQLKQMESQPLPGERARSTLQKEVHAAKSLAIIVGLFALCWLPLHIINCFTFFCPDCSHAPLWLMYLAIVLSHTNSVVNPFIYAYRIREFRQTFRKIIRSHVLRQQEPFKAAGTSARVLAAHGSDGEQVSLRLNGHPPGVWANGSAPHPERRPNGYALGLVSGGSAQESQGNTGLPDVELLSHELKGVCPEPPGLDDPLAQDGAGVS
Consider `COc1ccc(CN(CCN(C)C)c2ccccn2)cc1` [PYRILAMINE], for which the IC50 result is “Not Active”.
With `O=C1OC2(c3ccc(O)cc3Oc3cc(O)ccc32)c2ccccc21` [FLUORESCEIN], the IC50 entry is on record as “Not Active”.
Same read-out and setting: the result for `COC(=O)[C@H](c1ccccc1Cl)N1CCc2sccc2C1` [CLOPIDOGREL] reads “Not Active”.

Another test addresses Substance-P receptor (Homo sapiens, UniProt P25103).
Test: not given
The test is classed as cell membranes, CHO, Membrane. The settings on record: cho.
For `COc1ccc(CN(CCN(C)C)c2ccccn2)cc1` [PYRILAMINE], the IC50 result is “Not Active”.
As to `O=C1OC2(c3ccc(O)cc3Oc3cc(O)ccc32)c2ccccc21` [FLUORESCEIN], the IC50 entry is given as “Not Active”.
On to `COC(=O)[C@H](c1ccccc1Cl)N1CCc2sccc2C1` [CLOPIDOGREL], for which the IC50 entry is reported as “Not Active”.

For a further test, the target named is C-C chemokine receptor type 5 (Homo sapiens, UniProt P51681). Note: in other assays of this panel Not Active means under 50% inhibition at 10 µM.
Chain of C-C chemokine receptor type 5 (P51681 whole entry): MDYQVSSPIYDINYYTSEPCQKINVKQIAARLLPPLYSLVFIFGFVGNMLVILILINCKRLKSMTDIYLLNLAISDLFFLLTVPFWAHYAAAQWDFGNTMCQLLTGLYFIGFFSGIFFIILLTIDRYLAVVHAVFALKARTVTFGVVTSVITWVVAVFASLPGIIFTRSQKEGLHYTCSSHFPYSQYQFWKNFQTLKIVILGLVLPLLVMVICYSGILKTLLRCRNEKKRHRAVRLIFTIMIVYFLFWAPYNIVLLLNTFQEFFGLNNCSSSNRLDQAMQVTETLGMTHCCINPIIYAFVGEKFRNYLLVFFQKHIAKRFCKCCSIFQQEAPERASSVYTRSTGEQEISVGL
Test: not given
The class given is cell membranes, Membrane. The conditions noted are these: hek293.
For the compound `COc1ccc(CN(CCN(C)C)c2ccccn2)cc1` [PYRILAMINE], the IC50 result is “Not Active”.
As to `O=C1OC2(c3ccc(O)cc3Oc3cc(O)ccc32)c2ccccc21` [FLUORESCEIN], the IC50 entry is on record as “Not Active”.
On the same count and under the same terms, the value for `COC(=O)[C@H](c1ccccc1Cl)N1CCc2sccc2C1` [CLOPIDOGREL] was “Not Active”.

The values above are taken from ChEMBL document CHEMBL1909046, “DrugMatrix in vitro pharmacology data”.
